Reference: US20080124413A1, “NOVEL COMPOSITION CONTAINING EXTRACTS OF BUTYROSPERMUM PARKII AND THE USE OF SUCH A COMPOSITION FOR PREPARING A MEDICAMENT OR A DIETARY SUPPLEMENT FOR THE TREATMENT OR PREVENTION OF INFLAMMATION […] OR PAIN” (BSP Pharma A/S, priority 1999, published 2008)
Where two headings read alike, the source gives them in different places.

Experiments:
rat = settings: The Merck Index; cited from earlier work
[1] = tested on: BALB/c mouse arthritis induced by collagen mono-clonal antibody (mAb) and lipopolysaccharide; type: in vivo; settings: cyclophosphamide 10 mg/kg x3 orally, p<0.05 Wilcoxon
Experimental: BPC was dissolved in 100% corn oil. […] Dosing volume was 5 ml/kg.
In this study, male BALB/c mice weighing 20±1 grams were used. Space allocation for 5 mice was 45×23×15 cm. The animals were housed in APEC® (Allentown Gaging, Allentown, N.J. 08501, U.S.A.) cages and maintained in a hygienic environment under controlled temperature (22° C.-24° C.) and humidity (60%-80%) with 12-hours light/dark cycles for at least one week prior to being used. Free access to standard lab chow for mice and tap water was granted. All aspects of this work including housing, experimentation and disposal of animals were performed in general according to the International Guiding Principles for Biomedical Research Involving Animals (CIOMS Publication No. ISBN 92 90360194, 1985).
The study was performed according to the method of Terato et al. (Autoimmunity, 22:137-147, 1995).
Groups of 5 BALB/c mice, 6-8 weeks of age, were used for the induction of arthritis by monoclonal antibodies (mAbs) and lipopolysaccharide (LPS). […] This was followed by intravenous 25 μg of LPS 72 hours later (day 3). From day 3, test substances were administered orally once daily for 3 consecutive days. At day 5, one or two paws (particularly the hind) began to appear red and swollen, and from day 7, arthritis symptoms of the two hind paws became severely red and swollen in untreated mice. A plethysmometer (Ugo Basile Cat # 7150) with water cell (12 mm diameter) was used for the measurement of increase in both hind paw volumes at day 7, 10, 14 and 17. The percent of inhibition of increased paw volume was calculated as follows:
Inhibition (%): [1−(Tn−To)/(Cn−Co)]×100
Co (Cn): Volume of day 0 (day n) in vehicle control (both hind paws summed)
To (Tn): Volume of day 0 (day n) in test compound-treated group (both hind paws summed)
Wilcoxon rank sum test for paired differences was used for comparing swelling in the test compound treated groups with swelling in the control group.

O=P1(N(CCCl)CCCl)NCCCO1 (stereo not shown) [cyclophosphamide]
LD50 (rat): 94 mg/kg
reduction of hind paw edema relative to the vehicle-treated control group ([1]; day 10): 79%
reduction of hind paw edema relative to the vehicle-treated control group ([1]; day 14): 91%
reduction of hind paw edema relative to the vehicle-treated control group ([1]; day 17): 90%
